Measurements as given in patent US20210163964A1, “ENGINEERED STREPTOMYCES ALBUS STRAINS” (University of Florida Research Foundation, Incorporated, priority 2018, published 2021).

Test system: S. albus J1074 and the Δpfk-derivative strain
Assay: Diamide sensitivity disc assay
Format: cell-based, Streptomyces albus J1074
Details: 100 mM diamide disc; ΔpfkSA mutant relative to wild type S. albus J1074; R5A plates, 30° C., 24 h
Experimental: Lawns of S. albus J1074 wild-type and Δpfk mutant were generated by overlaying R5A plates (sucrose 100 g/l, K2SO4 0.25 g/l, MgCl2 10.12 g/l, glucose 10 g/l, Casamino acids 0.1 g/l, yeast extract 5 g/l, MOPS 21 g/l, NAOH 2 g/l, R2YE trace elements 2 ml/l, 15 g/L agar) with 3 ml soft Nutrient Agar containing 10^7 fresh spores. Immediately after plating, paper discs soaked in 100 mM diamide were added and plates were incubated at 30° C. for 24 h.

CN(C)C(=O)/N=N/C(=O)N(C)C [diamide]
sensitivity to diamide (halo around disc): less sensitive
